Measured values published in ChEMBL document CHEMBL1126184, “Synthesis and in vitro evaluation of boronated uridine and glucose derivatives for boron neutron capture therapy” (1992).

How the values were obtained:
Glioma [1] = details: Rattus norvegicus
Description: Compound's ability to selectively deliver the requisite amounts of boron to tumors (cellular uptake of boron by the rat F98 Glioma cells at 16h was determined.)

Glioma [2] = details: Rattus norvegicus; remark: listed apart in the source
Description: Compound's ability to selectively deliver the requisite amounts of boron to tumors(amount of boron present in media in rat F98 Glioma cells at 0h after incubation with the compound.)

Substance | Cellular uptake of boron at 16h (ug of B (g of cells)-1) (Glioma [1]) | Boron in media at 0h (Glioma [2])
1-[5-(1,2,3,4,5,6,7,8,9,10decabora-Cyclododec-11-en-11-ylmethoxymethyl)-3,4-dihydroxy-tetrahydro-furan-2-yl]-1H-pyrimidine-2,4-dione | 83.8 | 6.75 µg of B/ml
1-[3-(1,2,3,4,5,6,7,8,9,10decabora-Cyclododec-11-en-11-ylmethoxy)-4-hydroxy-5-hydroxymethyl-tetrahydro-furan-2-yl]-1H-pyrimidine-2,4-dione | 104 | 6.75 µg of B/ml
4-(1,2,3,4,5,6,7,8,9,10decabora-Cyclododec-11-en-11-ylmethoxy)-6-hydroxymethyl-tetrahydro-pyran-2,3,5-triol | 65.2 | 6.75 µg of B/ml
1-[4-(1,2,3,4,5,6,7,8,9,10decabora-Cyclododec-11-en-11-ylmethoxy)-3-hydroxy-5-hydroxymethyl-tetrahydro-furan-2-yl]-1H-pyrimidine-2,4-dione | 96.2 | 6.75 µg of B/ml
1-[4-Hydroxy-5-hydroxymethyl-3-(1,2,3,4,5,6,7,8,9nonabora-cycloundec-10-en-10-ylmethoxy)-tetrahydro-furan-2-yl]-1H-pyrimidine-2,4-dione | 1.5 | 6.75 µg of B/ml
